Experimental data taken from patent US20230027072A1, “IMPROVED METHODS, KITS, COMPOSITIONS AND DOSING REGIMENS FOR THE USE OF HETEROCYCLIC INHIBITORS OF ERK1 AND ERK2” (Asana Biosciences, LLC, priority 2019, published 2023).
Where two headings read alike, the source gives them in different places. One block for each compound: values may come before it.

Legend:
[1] = test system: phosphorylation of RSK1(S380) (the downstream target of ERK1/2); experiment: Mechanistic (phospho-RSK1(S380) ELISA) assay in HT-29 cells; assay type: cell-based, human; details: 2 h treatment, read-out: Mechanistic Cell Assay RSK1 Phos HT29 IC50
Method: Mechanistic (Phospho-RSK1(5380) ELISA) Assay
HT-29 cells (colorectal carcinoma, B-RafV600E); obtained from ATCC, USA) were seeded (60,000 cells/well) in a 96-well plate and incubated at 37° C./5% CO2 overnight and then treated with desired compound dilutions for 2 h. Medium was removed and cells were rinsed once with ice-cold 1×PBS, then 0.070 mL ice-cold 1× cell lysis buffer containing 1 mM PMSF was added to each well and the plate was incubated on a shaker for 2 h and 30 min at 4° C. The plate was then centrifuged for 20 min (×4000 rpm) at 4° C. and the supernatant was transferred to a new plate. Cell lysates were diluted with sample diluent at a ratio of 1:1. The ELISA was then carried out following the manufacturer's protocol (PathScan® phospho-RSK1(Ser380) Sandwich ELISA Kit, Cell Signaling Technologies). The plate was read at 450 nm within 30 min after adding STOP solution. The IC50 values were subsequently determined using a sigmoidal dose-response curve (variable slope) in GraphPad Prism® 5 software. Compounds of the present disclosure inhibited phosphorylation of RSK1(5380) (the downstream target of ERK1/2) as determined in this assay.

[2] = test system: HCT116 (colorectal carcinoma, K Ras G13D) cells; experiment: Cell proliferation (Alamar Blue) assay, HCT116; assay type: cell-based, human
Method: (§1) Cell Proliferation (Alamar Blue) Assay
(§2) HT-29 (colorectal carcinoma, B-RafV600E), HCT116 (colorectal carcinoma, K Ras G13D), A375 (melanoma, B-RafV600E) and SK-Mel2 (melanoma, NRAS Q61R) cells (obtained from ATCC, USA) were seeded (5000 cells/well) in 96-well tissue culture plate and incubated at 37° C./5% CO2 for 16-24 hours. The cells were then treated with compounds, at concentrations typically from 0.0005 to 10 uM prepared in 3-fold serial dilutions. The plates were then incubated for 72 h at 37° C./5% CO2 in a moist environment. Then Alamar Blue™ reagent (final concentration 1×) was added to each well and incubated for 1-3 h at 37° C./5% CO2. The plates were read on fluorescence reader at 540 nm excitation and 590 nm emission wavelengths. The IC50 values were subsequently determined using a sigmoidal dose-response curve (variable slope) using GraphPad Prism® 5 software. Compounds of the present disclosure caused inhibition of HT-29, HCT116, A375 and SK-Mel2 cell proliferation as determined in these assays.

[3] = test system: HT-29 (colorectal carcinoma, B-RafV600E) cells; experiment: Cell proliferation (Alamar Blue) assay, HT-29; assay type: cell-based, human; details: read-out: Cell Proliferation Assay HT29 IC50
Method: as §1, §2

[4] = Phase 1 clinical study, pharmacokinetics (Example 39); assay type: in vivo; details: human; for AUC / Cmax: plasma, oral, Day 15; for AUC: read-out: AUCtau, mean (CV %); for Cmax: read-out: Cmax, mean (CV %)
Excerpt: This human clinical study is designed to determine the maximum tolerated dose of the compound of Example 349 [S)—N-(2-Amino-1-(3-chloro-5-fluorophenyl)ethyl)-1-(5-methyl-2-((tetrahydro-2H-pyran-4-yl)amino)pyrimidin-4-yl)-1H-imidazole-4-carboxamide mandelic acid salt] and evaluate its safety, tolerability, pharmacokinetics and pharmacodynamics. This study is an open-label, non-randomized uncontrolled, multicenter, dose escalation, and cohort expansion study in subjects with histologically or cytologically confirmed advanced solid tumors for which no standard therapy exists. The compound of Example 349 was formulated as described in Example 35 above for administration to the study subjects.
Daily dosing: This part of the study was conducted using an accelerated titration design in which patients were dosed once daily in cycles of 3 weeks. The accelerated phase of the study included single-patient cohorts and escalation increases of 100% up to 80 mg/day dose cohorts in the absence of DLTs or ≥Grade 2 drug-related toxicity. In the absence of any DLTs or ≥Grade 2 drug-related toxicity, the conventional 3+3 design commenced at 80 mg/day dose level.
Weekly dosing: Once weekly dosing of subject in 3+3 escalating dose cohorts was explored as warranted by the emerging pharmacokinetics and clinical trial experience. Once weekly dose escalation increments were up to 50%, based on the absence of DLTs or ≥Grade 2 drug-related toxicity and the available tablet strengths. Initiation of escalating daily and weekly higher dose levels occurred only following safety data review and agreement by the Safety Review Committee.
Part A included and Part B will include a screening period (up to 21 days) and an estimated treatment period for up to 12 months. […] At the end of treatment, a post-treatment period of 4 weeks will commence that concludes with an end-of-study visit.
The pharmacokinetics of the compound of Example 349 was evaluated in the study subjects with solid tumors following once-daily oral administration at 10-80 mg or QW administration at 80-350 mg. […] With once-daily dosing, the accumulation in Cmax and AUCtau were approximately 2-fold based on the 40 mg data. With once-weekly administration, drug accumulation in plasma was minimal. […] Results of these pharmacokinetic studies are further illustrated in FIGS. 6 and 7, which show the plasma concentration-time profiles for the QD and QW regimens. FIGS. 6A and 6B show the plasma concentration over time for the compound of Example 349 measured on day 1 and day 15 for daily dosing at 10 mg/kg, 20 mg/kg, 40 mg/kg, 60 mg/kg and 80 mg/kg. […] FIGS. 7A and 7B show the plasma concentration over time for the compound of Example 349 measured on day 1 and day 15 for weekly dosing at 80 mg/kg, 120 mg/kg, 180 mg/kg, 250 mg/kg and 350 mg/kg.

[5] = target: T1, ERK2 (Homo sapiens, UniProt P28482); experiment: ERK2 HTRF (biochemical) assay
T1 construct: purchased Jubilant Biosys
Method: ERK1 and ERK2 HTRF (Biochemical) Assays
The assays described below employed a homogeneous time resolved fluorescence (HTRF) technique. The compounds were serially diluted by half-log with concentrations ranging from 0.0005 to 10 uM in the assay buffer (50 mM Tris pH-7.5, 1 mM EGTA, 2 mM DTT, 10 mM MgCl2, 0.1% Tween-20) and 20 uL of substrate-ATP mix [1 uM Biotin—LC-Myelin Basic Protein (MBP) derivatized Peptide (Anaspec)-24 uM ATP (Sigma)] was added to each well of the assay plate. Then 10 uL of enzyme mix [25 nM ERK1 or ERK2 (Jubilant Biosys) in assay buffer] was added to each well. The plate was incubated at room temperature for 60 min with shaking. The HTRF mix [625 nM LANCE® Ultra Europium-anti-phospho-MBP (Perkin Elmer) and 2 nM Phycolink® Streptavidin-Allophycocyanin (SA-APC) (Prozyme) in HTRF buffer (50 mM Tris-HCl pH-7.5, 100 mM NaCl, 0.1% BSA, 0.05% Tween20, 0.5 mM EDTA)] was prepared and 75 uL of this mix was added to the HTRF plate. After incubation for 60 min at room temperature, 10 uL of the reaction mixture was transferred to the HTRF assay plate and incubated for 45 min at room temperature with shaking. Plate was read using Pherastar in HTRF mode (excitation 337 nm, emission 665 & 620 nm). The IC50 values (half maximal inhibitory concentration values) were subsequently determined using a sigmoidal dose-response curve (variable slope) in GraphPad Prism® 5 software.

[6] = 40 mg daily (MTD for QD regimen)
[7] = 250 mg weekly (MTD for QW regimen)

T1 sequence (P28482 whole entry): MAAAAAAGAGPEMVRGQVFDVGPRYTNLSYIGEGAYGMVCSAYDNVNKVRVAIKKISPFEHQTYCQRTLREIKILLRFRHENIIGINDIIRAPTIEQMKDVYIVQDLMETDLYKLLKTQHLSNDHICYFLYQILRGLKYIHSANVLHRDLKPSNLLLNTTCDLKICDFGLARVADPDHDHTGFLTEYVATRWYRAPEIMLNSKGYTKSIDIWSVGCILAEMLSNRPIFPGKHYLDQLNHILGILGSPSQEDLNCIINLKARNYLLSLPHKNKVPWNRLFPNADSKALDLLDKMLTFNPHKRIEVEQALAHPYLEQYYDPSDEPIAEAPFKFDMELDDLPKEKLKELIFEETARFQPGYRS

Compound: Cc1cnc(NC2CCOCC2)nc1-n1cnc(C(=O)NC(CN)c2ccc(Cl)s2)c1 (stereo not drawn) [Example 274, N-(2-amino-1-(5-chlorothiophen-2-yl)ethyl)-1-(5-methyl-2-((tetrahydro-2H-pyran-4-yl)amino)pyrimidin-4-yl)-1H-imidazole-4-carboxamide]
IC50 ([1]; Homo sapiens, HT-29, 2 h): 100 to 250 nM

Compound: Cc1cnc(N[C@H]2CC[C@H](O)CC2)nc1-n1cnc(C(=O)N[C@H](CO)c2cccc(Cl)c2)c1 [Example 242, N-((S)-1-(3-chlorophenyl)-2-hydroxyethyl)-1-(2-(((1r,4S)-4-hydroxy-cyclohexyl)amino)-5-methyl-pyrimidin-4-yl)-1H-imidazole-4-carboxamide]
IC50 ([2]; Homo sapiens, HCT-116, 72 h): 500 to 2500 nM
IC50 ([1]; Homo sapiens, HT-29, 2 h): 250 to 500 nM

Compound: Cc1cnc(Nc2ccc(F)cc2Cl)nc1-n1ccc(C(=O)N[C@H](CO)c2cccc(Cl)c2)c1 [Compound 29, (S)-1-(2-((2-Chloro-4-fluorophenyl)amino)-5-methylpyrimidin-4-yl)-N-(1-(3-chlorophenyl)-2-hydroxyethyl)-1H-pyrrole-3-carboxamide]
IC50 ([2]; 72 h): 500 to 2500 nM

Compound: 1-(2- (benzo[d][1,3]diox- ol-5-ylamino)-5- methylpyrimidin-4- yl)-N-(1-(4- fluorophenyl)-2- hydroxyethyl)-1H- pyrrole-3- carboxamide [Example 172]
IC50 ([2]; 72 h): 250 to 500 nM
IC50 [1]: 100 to 250 nM

Compound: Cc1cnc(NC2CCOCC2)nc1-n1cnc(C(=O)NC(CN)c2ccc(Cl)s2)c1 (single isomer, unassigned; enantiomer #2) [Example 291, N-(2-amino-1-(5-chlorothiophen-2-yl)ethyl)-1-(5-methyl-2-((tetrahydro-2H-pyran-4-yl)amino)pyrimidin-4-yl)-1H-imidazole-4-carboxamide (enantiomer #2)]
IC50 ([3]; 72 h): 250 to 500 nM
IC50 ([2]; 72 h): 500 to 2500 nM
IC50 [1]: 250 to 500 nM

Compound: N-((1s,3s)-1-(3- chlorophenyl)-3- hydroxycyclo- butyl)- 1-(5-methyl-2- ((tetrahydro-2H-4- yl)amino)pyrimi- din-4-yl)-1H- imidazole-4- carboxamide [Example 245]
IC50 [1]: 250 to 500 nM

Compound: N-(1-(3-chloro- phenyl)-2-hydroxy- ethyl)-1-(2-((3- fluoro-2-methoxy- phenyl)amion)-5- methylpyrimidin-4- yl)-1H-pyrrole-3- carboxamide [Example 143]
IC50 ([2]; 72 h): 250 to 500 nM
IC50 [1]: 250 to 500 nM

Continued, in another order:

IC50 ([3]; Homo sapiens, HT-29, 72 h): 100 to 250 nM
IC50 ([2]; Homo sapiens, HCT-116, 72 h): 100 to 250 nM
IC50 ([1]; Homo sapiens, HT-29, 2 h): ≤ 100 nM
Compound: Cc1cnc(Nc2ccc3occc3c2)nc1-n1ccc(C(=O)NC(CO)c2cccc(Cl)c2)c1 (stereo not drawn) [Example 68, 1-(2-(benzofuran-5-ylamino)-5-methylpyrimidin-4-yl)-N-(1-(3-chlorophenyl)-2-hydroxyethyl)-1H-pyrrole-3-carboxamide]

IC50 ([2]; 72 h): 250 to 500 nM
IC50 [1]: 100 to 250 nM
Compound: Cc1cnc(NC2CCOCC2)nc1-n1cnc(C(=O)NC(c2cccc(Cl)c2)C(C)O)c1 (stereo not drawn) [Example 252, N-(1-(3-chlorophenyl)-2-hydroxypropyl)-1-(5-methyl-2-((tetrahydro-2H-pyran-4-yl)amino)-pyrimidin-4-yl)-1H-imidazole-4-carboxamide]

AUCtau values, dependence on dose ([4]; in vivo): dose dependent
Cmax values, dependence on dose ([4]; in vivo): dose dependent
Total CL/F, dependence on dose ([4]; in vivo): independent of dose levels
Vd/F, dependence on dose ([4]; in vivo): independent of dose levels
Tmax ([4]; in vivo, po): 1 to 4 h
half-life ([4]; in vivo, po): ~25 h
Compound: Cc1cnc(NC2CCOCC2)nc1-n1cnc(C(=O)N[C@H](CN)c2cc(F)cc(Cl)c2)c1 [Example 349]
AUC [4, 6]: 492 ng·h/mL
Cmax [4, 6]: 61.5 ng/mL
AUC [4, 7]: 5500 ng·h/mL
Cmax [4, 7]: 495 ng/mL

IC50 ([3]; Homo sapiens, HT-29, 72 h): 250 to 500 nM
IC50 ([2]; Homo sapiens, HCT-116, 72 h): 500 to 2500 nM
Compound: Cc1cnc(Nc2ccc(F)cc2)cc1-n1cnc(C(=O)NC(CN)c2ccccc2)c1 (stereo not drawn) [Compound 191, N-(2-amino-1-phenylethyl)-1-(2-((4-fluorophenyl)amino)-5-methylpyridin-4-yl)-1H-imidazole-4-carboxamide]

IC50 ([2]; 72 h): > 2500 nM
IC50 [1]: 500 to 2500 nM
Compound: Cc1cnc(NC2CCOCC2)nc1-n1cnc(C(=O)NC(c2cccc(Cl)c2)C(C)O)c1 (stereo not drawn) [Example 253, N-(1-(3-chlorophenyl)-2-hydroxypropyl)-1-(5-methyl-2-((tetrahydro-2H-pyran-4-yl)amino)-pyrimidin-4-yl)-1H-imidazole-4-carboxamide]

IC50 [5]: 500 to 2500 nM
Compound: Cc1cnc(Nc2ccc3c(c2)OC(F)(F)O3)cc1-n1cc(C(=O)NC(CN)Cc2ccccc2)nn1 (stereo not drawn) [Compound 134]

IC50 ([3]; Homo sapiens, HT-29, 72 h): 100 to 250 nM
Compound: Cc1cnc(Nc2ccc(F)cc2)cc1-n1cnc(C(=O)NC(CN)c2ccccc2)c1 (single isomer, unassigned) [Example 227, N-(2-amino-1-phenylethyl)-1-(2-((4-fluorophenyl)-amino)-5-methyl-pyridin-4-yl)-1H-imidazole-4-carboxamide]
